Source: PubChem BioAssay (NCI)
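Growth conditions: 96-well plates. Treatment: test compound, 48 hours, 5 concentrations. Analysis: linear interpolation between bracketing concentrations; unreached endpoints set to highest concentration. Abbreviation: GI50, concentration required for 50% inhibition of growth. TGI is the concentration that stops growth completely.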

What follows are compounds tested on NCI-H226 lung (assay: NCI-60 cell line screen, 48 h).

Compound | GI50 [µM] | TGI [µM]
COc1ccc(-c2cc(-c3ccc(Nc4ccnc5cc(Cl)ccc45)cc3)nc(N3CCOCC3)n2)cc1 | > 100 | > 100

Each compound was assayed on HT29 colon (assay: NCI-60 cell line screen, 48 h).

Compound | GI50 [nM] | TGI [µM]
Cn1cc(-c2csc(-c3cn(C)c4ccc(F)cc34)n2)c2cnccc21 | 1470 | 3
COc1cc(OC)c2sc(-c3ccc(-n4cncc4-c4cc(OC)c(OC)c(OC)c4)cc3)nc2c1 | 4880 | > 100
Cc1cn2c(/C=N/N=C(N)N)c(-c3ccc(Cl)c([N+](=O)[O-])c3)nc2s1 |  | 2.72
CN(C)CCNc1nc2ccccc2c2c(=O)c3cc(F)ccc3sc12 | 1680 | 3.48
O=C(CBr)c1ccc2cc(Br)c3ccccc3c2c1 |  | > 100
COc1ccc(-c2cc(-c3ccc(Nc4ccnc5cc(Cl)ccc45)cc3)nc(N3CCOCC3)n2)cc1 | 3280 | > 100

Each compound was assayed on MCF7 breast (assay: NCI-60 cell line screen, 48 h).

Compound | GI50 [nM] | TGI [µM]
Cn1cc(-c2csc(-c3cn(C)c4ccc(F)cc34)n2)c2cnccc21 | 1930 | 3.66
COc1cc(OC)c2sc(-c3ccc(-n4cncc4-c4cc(OC)c(OC)c(OC)c4)cc3)nc2c1 | 3880 | > 100
CN(C)CCNc1nc2ccccc2c2c(=O)c3cc(F)ccc3sc12 | 1620 | 3.22
O=C(CBr)c1ccc2cc(Br)c3ccccc3c2c1 |  | 73.8

Each compound was assayed on HCC-2998 colon (assay: NCI-60 cell line screen, 48 h).

Compound | GI50 [nM] | TGI [µM]
Cn1cc(-c2csc(-c3cn(C)c4ccc(F)cc34)n2)c2cnccc21 | 1860 | 3.55
COc1cc(OC)c2sc(-c3ccc(-n4cncc4-c4cc(OC)c(OC)c(OC)c4)cc3)nc2c1 | > 100000 | > 100
CN(C)CCNc1nc2ccccc2c2c(=O)c3cc(F)ccc3sc12 | 1680 | 3.23
O=C(CBr)c1ccc2cc(Br)c3ccccc3c2c1 |  | > 100
COc1ccc(-c2cc(-c3ccc(Nc4ccnc5cc(Cl)ccc45)cc3)nc(N3CCOCC3)n2)cc1 | > 100000 | > 100

What follows are compounds tested on NCI-H23 lung (assay: NCI-60 cell line screen, 48 h).

Compound | GI50 [µM] | TGI [µM]
Cn1cc(-c2csc(-c3cn(C)c4ccc(F)cc34)n2)c2cnccc21 | 1.94 | 3.58
COc1cc(OC)c2sc(-c3ccc(-n4cncc4-c4cc(OC)c(OC)c(OC)c4)cc3)nc2c1 | 6.15 | > 100
CN(C)CCNc1nc2ccccc2c2c(=O)c3cc(F)ccc3sc12 | 1.79 | 3.26
O=C(CBr)c1ccc2cc(Br)c3ccccc3c2c1 |  | 35.3
COc1ccc(-c2cc(-c3ccc(Nc4ccnc5cc(Cl)ccc45)cc3)nc(N3CCOCC3)n2)cc1 | 4.99 | > 100

Each compound was assayed on IGROV1 ovarian (assay: NCI-60 cell line screen, 48 h).

Compound | GI50 [nM] | TGI [µM]
Cn1cc(-c2csc(-c3cn(C)c4ccc(F)cc34)n2)c2cnccc21 | 1960 | 3.63
COc1cc(OC)c2sc(-c3ccc(-n4cncc4-c4cc(OC)c(OC)c(OC)c4)cc3)nc2c1 | 5870 | > 100
CN(C)CCNc1nc2ccccc2c2c(=O)c3cc(F)ccc3sc12 | 1530 | 2.99
O=C(CBr)c1ccc2cc(Br)c3ccccc3c2c1 |  | 62.4

Each compound was assayed on T-47D breast (assay: NCI-60 cell line screen, 48 h).

Compound | GI50 [µM] | TGI [µM]
COc1cc(OC)c2sc(-c3ccc(-n4cncc4-c4cc(OC)c(OC)c(OC)c4)cc3)nc2c1 | 3.35 | > 100

What follows are compounds tested on A549 NSCLC (assay: NCI-60 cell line screen, 48 h).

Compound | GI50 [nM] | TGI [µM]
Cn1cc(-c2csc(-c3cn(C)c4ccc(F)cc34)n2)c2cnccc21 | 1670 | 3.27
COc1cc(OC)c2sc(-c3ccc(-n4cncc4-c4cc(OC)c(OC)c(OC)c4)cc3)nc2c1 | 6160 | > 100
CN(C)CCNc1nc2ccccc2c2c(=O)c3cc(F)ccc3sc12 | 2100 | 4.83
O=C(CBr)c1ccc2cc(Br)c3ccccc3c2c1 |  | 76.7
